Measurements as given in patent publication US20240148723A1, “MYCOBACTERIUM TUBERCULOSIS COMPOSITIONS AND METHODS” (priority 2021, published 2024).
Values after ≈ are worked out from the molar mass of the structure shown.

What follows are compounds tested on M. tuberculosis H37Ra (assay: microbe, parasite or virus in culture). Details: Mycobacterium tuberculosis, H37RA, 336 h, pH 6.8.
Type: cell-based, Mycobacterium tuberculosis

| Compound | MIC [µg/mL] |
| --- | --- |
| CO[C@H]1/C=C/O[C@@]2(C)Oc3c(C)c(O)c4c(O)c(c(/C=N/N5CCN(C)CC5)c(O)c4c3C2=O)NC(=O)/C(C)=C\C=C\[C@H](C)[C@H](O)[C@@H](C)[C@@H](O)[C@@H](C)[C@H](OC(C)=O)[C@@H]1C [rifampin] | 0.13 (≈ 0.158 µM) |
| CC[C@@H](CO)NCCN[C@@H](CC)CO [ethambutol] | 2 (≈ 9.79 µM) |
| NNC(=O)c1ccncc1 [isoniazid] | 0.02 (≈ 0.146 µM) |

Same assay, conditions: Mycobacterium tuberculosis, H37RA, pH 6.8

| Compound | MIC [µg/mL] |
| --- | --- |
| CO[C@H]1/C=C/O[C@@]2(C)Oc3c(C)c(O)c4c(O)c(c(/C=N/N5CCN(C)CC5)c(O)c4c3C2=O)NC(=O)/C(C)=C\C=C\[C@H](C)[C@H](O)[C@@H](C)[C@@H](O)[C@@H](C)[C@H](OC(C)=O)[C@@H]1C [rifampin] | 0.06 (≈ 0.0729 µM) |
| [H]/N=C(/N)N[C@H]1[C@H](O)[C@@H](O)[C@H](O[C@@H]2O[C@@H](C)[C@](O)(C=O)[C@H]2O[C@@H]2O[C@@H](CO)[C@H](O)[C@@H](O)[C@@H]2NC)[C@@H](N/C(N)=N\[H])[C@@H]1O [streptomycin] | 0.25 (≈ 0.43 µM) |
| COc1c(N2C[C@@H]3CCCN[C@@H]3C2)c(F)cc2c(=O)c(C(=O)O)cn(C3CC3)c12 [moxifloxacin] | 0.25 (≈ 0.623 µM) |
| CC(=O)NC[C@H]1CN(c2ccc(N3CCOCC3)c(F)c2)C(=O)O1 [linezolid] | 2 (≈ 5.93 µM) |
| CC[C@@H](CO)NCCN[C@@H](CC)CO [ethambutol] | 1.6 (≈ 7.83 µM) |
| CCc1cc(C(N)=S)ccn1 [ethionamide] | 0.5 (≈ 3.01 µM) |
| COc1nc2ccc(Br)cc2cc1[C@@H](c1ccccc1)[C@@](O)(CCN(C)C)c1cccc2ccccc12 [bedaquiline] | 0.064 (≈ 0.115 µM) |
| NNC(=O)c1ccncc1 [isoniazid] | 0.06 (≈ 0.438 µM) |

What follows are compounds tested on M. tuberculosis (assay: not given). Details: pH 6.8.
Type: cell-based, Mycobacterium tuberculosis

| Compound | MIC in the media 7H9 [µg/mL] | MIC in the media L-Ala [µg/mL] | MIC in the media SBA [µg/mL] | MIC in the media SLac [µg/mL] |
| --- | --- | --- | --- | --- |
| CC1(C)CCSC(C=Cc2ccccc2)=N1 [compound 150954] | ≥ 11.57 | 5.78 (≈ 25 µM) | 2.89 (≈ 12.5 µM) | 2.89 (≈ 12.5 µM) |
| COc1ccc(C(=O)c2ccccc2O)c(O)c1 [compound 56769] | ≥ 97.70 | 24.42 (≈ 100 µM) | 24.42 (≈ 100 µM) | 0.76 (≈ 3.11 µM) |
| Nc1cc(Nc2ccc(Br)cc2)nc(N)n1 [compound 42135] | ≥ 28.01 | 7.00 (≈ 25 µM) | 14.01 (≈ 50 µM) | 3.50 (≈ 12.5 µM) |
| COc1ccc(C2CC(=O)c3c(O)cc(O)cc3O2)cc1O (stereo not shown) [compound 57654] | ≥ 120.91 | 7.56 (≈ 25 µM) | 7.56 (≈ 25 µM) | 1.89 (≈ 6.25 µM) |
| C=C1C(=O)OC2CC1C(OC(C)=O)C/C(C)=C/CC/C(C)=C\CCC2(C)O (stereo not shown) [compound 36437] | ≥ 37.65 | 9.41 (≈ 25 µM) | 4.71 (≈ 12.5 µM) | 2.35 (≈ 6.24 µM) |
| COC(C(=O)C(O)C(C)O)C1Cc2cc3cc(OC4CC(OC(C)=O)C(OC5CC(O)C(OC)C(C)O5)C(C)O4)cc(O)c3c(O)c2C(=O)C1OC1CC(OC2CC(OC3CC(C)(O)C(OC(=O)C(C)C)C(C)O3)C(O)C(C)O2)C(O)C(C)O1 (stereo not shown) [compound 38270] | ≥ 59.87 | 7.48 (≈ 6.25 µM) | 3.83 (≈ 3.2 µM) | 3.83 (≈ 3.2 µM) |
| Nc1ccc(N=Nc2ccc(O)cc2)c(N)n1 [compound 108235] | ≥ 22.92 | 11.46 (≈ 50 µM) | 11.46 (≈ 50 µM) | 5.73 (≈ 25 µM) |
| CCCOC(=O)c1ccc(N)cc1 [compound 23516] | ≥ 800 | 0.12 (≈ 0.67 µM) | 0.25 (≈ 1.39 µM) | 0.25 (≈ 1.39 µM) |
| CCN(CC)CCOc1ccc(C(=C(Cl)c2ccccc2)c2ccccc2)cc1.O=C(O)CC(O)(CC(=O)O)C(=O)O (mixture of isomers) [compound 35770] | ≥ 14.95 | 1.91 | 1.91 | 0.96 |
| O=[N+]([O-])/C=C/c1cc2ccccc2[nH]1 [compound 150982] | ≥ 18.82 | 9.41 (≈ 50 µM) | 4.70 (≈ 25 µM) | 2.35 (≈ 12.5 µM) |
| CCC(C)c1occ2c(O)c(C(=O)O)c(=O)cc-2c1C (stereo not shown) [compound 114344] | ≥ 110.51 | 27.63 (≈ 100 µM) | 6.91 (≈ 25 µM) | 1.73 (≈ 6.26 µM) |
| CC[C@@]1([C@@H]2O[C@@H]([C@H]3O[C@@](O)(CO)[C@H](C)C[C@@H]3C)C[C@@H]2C)CC[C@H]([C@]2(C)CC[C@]3(C[C@H](O)[C@@H](C)[C@@H]([C@@H](C)[C@@H](OC)[C@H](C)C(=O)[O-])O3)O2)O1.[Na+] [compound 343257] | ≥ 4.33 | 4.33 | 4.33 | 8.66 |
| O=C(CCc1ccc(O)cc1)c1c(O)cc(O)cc1O [compound 407292] | ≥ 109.72 | 1.71 (≈ 6.23 µM) | 3.43 (≈ 12.5 µM) | 1.71 (≈ 6.23 µM) |
| Cc1ccc(NC(c2ccccc2)c2ccc3cccnc3c2O)cc1 (stereo not shown) [compound 84093] | ≥ 136.16 | 17.02 (≈ 50 µM) | 2.13 (≈ 6.26 µM) | 2.13 (≈ 6.26 µM) |
| c1ccc2c(c1)Sc1ccccc1N2CC1CN2CCC1CC2 (stereo not shown) [compound 303612] | ≥ 16.13 | 8.06 (≈ 25 µM) | 8.06 (≈ 25 µM) | 4.03 (≈ 12.5 µM) |
| NN=C1C(Cl)=C(Cl)C(Cl)=C1Cl [compound 126405] | ≥ 23.19 | 5.80 (≈ 25 µM) | 5.80 (≈ 25 µM) | 5.80 (≈ 25 µM) |
| CN1CCN(c2ccc(C(=O)Nc3n[nH]c4ccc(Cc5cc(F)cc(F)c5)cc34)c(NC3CCOCC3)c2)CC1 [compound 774769] | ≥ 28.03 | 7.01 (≈ 12.5 µM) | 3.50 (≈ 6.24 µM) | 3.50 (≈ 6.24 µM) |
| CCCCCc1cc(O)cc2c1Oc1cc(O)cc(C(=O)CCCC)c1C(=O)O2 [compound 31867] | ≥ 39.84 | 4.98 (≈ 12.5 µM) | 2.49 (≈ 6.25 µM) | 0.64 (≈ 1.61 µM) |
| Sc1nc2cc(-c3ccccc3)ccc2o1 [compound 93817] | ≥ 22.73 | 1.42 (≈ 6.25 µM) | 0.73 (≈ 3.21 µM) | 0.73 (≈ 3.21 µM) |
| C=CC(=O)Nc1cc(Nc2nccc(-c3cn(C)c4ccccc34)n2)c(OC)cc1N(C)CCN(C)C [compound 779217] | ≥ 12.49 | 3.12 (≈ 6.24 µM) | 3.12 (≈ 6.24 µM) | 1.60 (≈ 3.2 µM) |
| C1C2CC3C1C3/C2=N\N=C1/C2CC3C(C2)C13 [compound 122987] | ≥ 88.52 | 1.38 (≈ 6.5 µM) | 11.06 (≈ 52.1 µM) | 5.53 (≈ 26 µM) |
| COC12C(COC(N)=O)C3=C(C(=O)C(C)=C(N)C3=O)N1CC1C2N1C (stereo not shown) [compound 56410] | ≥ 0.28 | 0.28 (≈ 0.804 µM) | 0.28 (≈ 0.804 µM) | 0.56 (≈ 1.61 µM) |
| Oc1c(N=Nc2nn[nH]n2)ccc2ccccc12 [compound 338106] | ≥ 3.00 | 1.50 (≈ 6.24 µM) | 1.50 (≈ 6.24 µM) | 0.77 (≈ 3.21 µM) |
